Where two headings read alike, the source gives them in different places.
Columns and labels:
[1] = tested on: SARS-CoV-2-NLuc; assay: microbe, parasite or virus in culture; format: cell-based, SARS Coronavirus 2
[2] = target: recombinant SARS-CoV-2 Main protease (Mpro) (Severe acute respiratory syndrome coronavirus 2 (2019-nCoV) (SARS-CoV-2), UniProt P0DTD1); assay: Cov Mpro Biochemical IC50 Assay
[3] = Severe acute respiratory syndrome coronavirus, 48 h, read-out: MPro EC50
[4] = recombinant SARS-CoV-2 Mpro 7.5 nM, fluorogenic peptide substrate 40 μM, read-out: MPro IC50
[5] = recombinant SARS-CoV-2 Mpro, fluorogenic peptide substrate, read-out: MPro IC50
[6] = Severe acute respiratory syndrome coronavirus, 48 h; read-out: MPro EC50

Compound | EC50 [1, 3] | IC50 [2, 4] | IC50 [2, 5] | further results
N#Cc1ncccc1-c1cc2[nH]c(=O)n(-c3cncc4ccccc34)c(=O)c2s1 [Example 538] | 826 nM | 59.8 nM |  | 
O=c1[nH]c2cc(-c3ccccc3Cl)ncc2c(=O)n1-c1cncc2ccccc12 [Example 163, 7-(2-chlorophenyl)-3-(4-isoquinolyl)-1H-pyrido[4,3-d]pyrimidine-2,4-dione] | 932 nM |  | 489 nM | 
CNC(=O)[C@H]1C[C@@H]1c1cncc(-n2c(=O)[nH]c3cc(-c4ccccc4Cl)sc3c2=O)c1 [Example 383] | 286 nM |  | 5.23 nM | 
O=c1c2sc(-c3ccccc3Cl)cc2[nH]c(=S)n1-c1cncc2ccccc12 [Example 176] |  |  |  | EC50 [1, 6]: 292 nM; IC50 ([2]; MPro IC50, recombinant SARS-CoV-2 Mpro, fluorogenic peptide substrate): 330 nM
O=c1[nH]c2cc(-c3ccccc3Cl)sc2c(=O)n1-c1cncc2ccc(N3CCO[C@H](C(F)(F)F)C3)cc12 [Example 417] | 160 nM | 17.8 nM |  | 
O=c1[nH]c2cc(-c3ccccc3Cl)sc2c(=O)n1-c1cncc2cccnc12 (single isomer, unassigned) [Example 463, 6-(2-chlorophenyl)-3-(1,6-naphthyridin-8-yl)thieno[3,2-d]pyrimidine-2,4(1H,3H)-dione] |  | 202 nM |  | EC50 ([1]; read-out: MPro EC50): 464 nM
COc1cnc(Cl)c(-c2cc3c(s2)c(=O)n(-c2cncc4nnn(C)c24)c(=O)n3CCC#N)c1 [Example 884] | 126 nM | 31.4 nM |  | 
N#Cc1ccc(-c2ccc3c(=O)n(-c4cncc5ccccc45)c(=O)[nH]c3c2)cc1 [Example 35] | > 50000 nM |  | > 100000 nM | 
COc1cc(-c2cc3[nH]c(=O)n(-c4cncc5cccnc45)c(=O)c3cc2OC)c(C#N)cc1F [Example 684] | 119 nM | 13.5 nM |  | 
COc1cc(-c2cc3c(s2)c(=O)n(-c2cncc4cnn(C)c24)c(=O)n3CC2(C#N)CC2)c(Cl)cc1F [Example 643, 1-[[6-(2-chloro-4-fluoro-5-methoxy-phenyl)-3-(1-methylpyrazolo[4,3-c]pyridin-7-yl)-2,4-dioxo-thieno[3,2-d]pyrimidin-1-yl]methyl]cyclopropanecarbonitrile] |  | < 4.05 nM |  | EC50 [1, 6]: 1.14 nM
O=c1[nH]c2cc(-c3c(Cl)cccc3-c3ccc4c(c3)OCO4)ccc2c(=O)n1-c1cncc2ccccc12 [Example 356] | 52.2 nM |  | 130 nM | 
Cn1nncc1-c1cccc(Cl)c1-c1ccc2c(=O)n(-c3cncc4ccccc34)c(=O)[nH]c2c1 [Example 567, 7-[2-chloro-6-(3-methyltriazol-4-yl)phenyl]-3-(4-isoquinolyl)-1H-quinazoline-2,4-dione] |  | 50.9 nM |  | EC50 ([1]; read-out: MPro EC50): 228 nM
Cc1ncccc1-c1cc2[nH]c(=O)n(-c3cncc4ccccc34)c(=O)c2s1 [Example 23] | 800 nM |  | 258 nM | 
O=c1[nH]c2cc(-c3ccccc3Cl)sc2c(=O)n1-c1cncc2ccc(N3CCN(C4COC4)CC3)cc12 [Example 392] | 6.75 nM |  | < 2.54 nM | 
O=c1[nH]c2cc(-c3ccccc3)sc2c(=O)n1-c1cncc2ccccc12 [Example 2] | 2490 nM |  | 267 nM | 
Cn1cnc(COc2cccc(Cl)c2-c2ccc3c(=O)n(-c4cncc5ccccc45)c(=O)[nH]c3c2)n1 [Example 88] | 630 nM |  | 233 nM | 
Cc1c(-c2cccc(Cl)c2-c2ccc3c(=O)n(-c4cncc5ccccc45)c(=O)[nH]c3c2)cnn1C1CCN(C(=O)OC(C)(C)C)CC1 [Example 268] | 43.1 nM |  | 131 nM | 
COc1cc(-c2cc3c(s2)c(=O)n(-c2cncc(C)c2)c(=O)n3CCC#N)c(C#N)cc1F [Example 876] | 6.25 nM | 2.76 nM |  | 
O=c1c2sc(-c3ccccc3Cl)cc2n(Cc2cccnn2)c(=O)n1-c1cncc2ccccc12 [Example 154] | 193 nM |  | 124 nM | 
O=c1[nH]c2cc(-c3ccsc3Cl)sc2c(=O)n1-c1cncc2ccccc12 [Example 21] | 204 nM |  | 32.5 nM | 
Cc1cc2c(=O)n(-c3cncc4ccccc34)c(=O)[nH]c2cc1-c1ccccc1Cl [Example 81] | 184 nM |  | 231 nM | 
COc1cc(-c2cc3[nH]c(=O)n(-c4cncc(Cl)c4)c(=O)c3s2)c(Cl)cc1F [Example 715] |  | 4.63 nM |  | EC50 [1, 6]: 9.94 nM
O=c1[nH]c2cc(-c3ccccc3Cl)ccc2c(=O)n1-c1cncnc1 [Example 123] | 47000 nM |  | > 100000 nM | 

— patent US20240116946A1 (Gilead Sciences, Inc., priority 2022, published 2024)
